Measured values reported in PMC6789111, “Crossing the blood-brain-barrier with nanoligand drug carriers self-assembled from a phage display peptide” (Nature Communications, 2019).
Like-named read-outs stand apart in the source and are kept apart here. Peptide text beside a SMILES is read from it. * marks the point of attachment. 5FAM = O=C1OC2(c3ccc(O)cc3Oc3cc(O)ccc32)c2ccc(C(=O)*)cc21

Tests used:
hCMEC/D3 cells [1] = assay: Cell uptake by flow cytometry; assay type: cell-based, human; details: 5 µM, foetal bovine serum, 16 h, 37 °C (Supplementary Fig. 12)
Protocol: Peptide internalisation was measured by flow cytometry (FACS ArrayTM Cell Analysis, Becton, Dickinson and Company, NJ, USA). Cells (1 × 10^5 cm^−2) were seeded on 24-well plates and grown 1 day at 37 °C and 5% CO2 in order to reach 60–70% confluence. The cells were washed 3 times with pre-heated PBS. The uptake studies were initiated by adding 500 µL of 5 µM fluorescence-labelled peptides (diluted in cell medium containing with different serum concentration). Serum concentration in incubation varied from 5 to 20% (v/v). […] A total of 10,000 cells were analysed by flow cytometry.

[2] = mouse, in vivo, iv
Protocol: After 4, 24 and 72 h post injection, mice were sacrificed and perfused with 10 mL 0.9% (w/v) saline at a rate of 2 mL min^−1. Organs (brain, heart, liver, lung, kidney, spleen) were collected for haematoxylin-eosin (H&E) analysis. Tissues were sectioned at a 5 mm thickness. H&E staining was done by submersion in Harris hematoxylin followed by differentiation through 37% HCl and Li2CO3 solution. An Olympus optical microscope (Tokyo, Japan) was used for assessing slides.

hCMEC/D3 cells [3] = assay: Uptake with internalisation inhibitors; details: 37 °C
Protocol: The medium was then removed and replaced with a fresh medium containing NLCs and the corresponding inhibitor. After 8 h of incubation at 37 °C, cells were washed three times with cell medium and analysed by FACS. Cell viability at the end of each experiment was >90% as determined by Trypan Blue exclusion test. The following inhibitors were used: 2-deoxy-D-glucose (1 mM)/sodium azide (1 mM) as energy-dependent inhibitors, worthmanin (10 μM) as macropinocytosis inhibitor, chloropromazine (30 μM) as clathrin-dependent endocytosis inhibitor, N-ethylmaleimide (5 μM) as caveolae-dependent endocytosis and transcytosis inhibitor and indomethacin (200 μM) as caveolae-dependent endocytosis inhibitor.

Iba-1 = assay: ELISA of Iba-1 in hippocampus; assay type: in vivo, ICR mice; details: Ave.
[4] = mouse, in vivo, iv; remark: listed apart in the source
Protocol: In some experiments, animals were transcardially perfused with 10 mL 0.9% (w/v) saline at a rate of 2 mL min^−1 through the left ventricle to remove the blood from the brain, followed by 20 mL 4% (v/v) paraformaldehyde in phosphate buffered saline (PBS, pH = 7.4). The brain was removed and post-fixed overnight in 4% (v/v) paraformaldehyde followed by dehydration with 30% (w/v) sucrose solution in PBS at 4 °C. Frozen sections were cut on a cryostat (Thermo fisher, USA). […] To visualise neurons, microglial and astrocytes, sections were first stained with antibodies against Tuj1 (1:500), Iba1 (1:300) and GFAP (1:300), respectively, and then with donkey anti-mouse Alexa Fluor®555 (1:1000 dilution) secondary antibody. DAPI staining was performed to visualise cell nuclei.

hCMEC/D3 cells [5] = system: hCMEC/D3 cells
Protocol: LDH release was followed at 24 h post transfection procedures. The measurement was performed using CytoTox96® Non-Radioactive Cytotoxicity Assay kit (Promega, WI, USA)[43]. The maximum amount of LDH in the cells, induced by the addition of a lysis solution, was measured and used as a 100% LDH release and compared with peptidoplex and siPORT-siRNA complex-induced LDH release as well as to spontaneous cellular LDH release (untreated cells).

IL-6 = assay: ELISA of IL-6 in hippocampus; assay type: in vivo, ICR mice; details: Ave.
Protocol: After 4, 24 and 72 h post injection, mice were sacrificed and perfused with 10 mL 0.9% (w/v) saline at a rate of 2 mL min^−1.

TNF-α = details: Ave.
Protocol: Tissues were sectioned at a […] thickness.
Blood samples were collected for determination of red blood cell count, white blood cell count, haemoglobin, haematocrit, mean corpuscular volume, mean corpuscular haemoglobin, mean corpuscular haemoglobin concentration and platelet count (XFA6030, Perlong Medical Inc., China). Hippocampus was dissected out, rinsed in ice-cold PBS thoroughly, weighted and immediately frozen in liquid nitrogen. Tissues were cut into small pieces and homogenized in 1 mL ice-cold PBS with a glass homogeniser and sonicated with an ultrasonic cell disrupter to break the cell membranes. Homogenates were centrifuges for 5 min at 5,000 × g and supernatants were assayed immediately for quantitative determination of TNF-α, IL-6, IL-1β, Iba-1 and GFAP by corresponding ELISA kits, respectively in accordance with manufacturer’s instructions.

hCMEC/D3 cell monolayer = assay: Transwell in vitro BBB model; assay type: cell-based, human
Protocol: For the construction of the in vitro BBB model, hCMEC/D3 cells were seeded on rat tail collagen-coated polycarbonate membranes (Transwell, No. 3401 Costar; Corning, Wiesbaden, Germany; 0.4 μm pore size; 1.13 cm^2 growth area) with a density of 100,000 cells cm^−2. Every three days the cell medium was change. In general after 7 days growth, the cells reached confluence. The transendothelial electrical resistance (TEER) and cell layer capacitance (CCL), which reflects the membrane surface area of the hCMEC/D3 cell monolayer, were measured using CellZscope system (NanoAnalytics, Münster, Germany). Cells with CCL values in the range of 0.5–5.0 μF cm^−2 indicate cell confluence and validate TEER values were selected for the transfer experiments. NLCs at different concentrations were introduced in to the apical side of the BBB model. The TEER values were measured during the incubation. After 24 h of incubation, the media from basal and apical sides were sampled and analysed for fluorescent measurement. CD31 and paracellular adherens (β-catenin) junctions were assessed by immunofluorescence labeling directly on the cell monolayer attached to the transwell membrane. Briefly, cells were fixed by 4% v/v paraformaldehyde for 10 min, rinsed and then permeabilised with 0.5% (v/v) Triton X-100 for 10 min. After rinsing samples were blocked by 5% w/v BSA for 1 h, followed by incubation with primary antibodies (rabbit polyclonal to CD31, rabbit polyclonal to anti-β-catenin) in 1% w/v BSA overnight at 4 °C. […] After rinsing, the red fluorescence from tight junction proteins was observed by a Leica AF6000LX microscope equipped with a 63 × objective using ×1.6 magnifications. […]
formation of multiple cell-layers was sometime observed from day 7 onward. […] TEER values and its corresponding capacitance were recorded after the introduction of peptide for 24 h. (d) & (e) Staining and quantification of endothelial cells (CD31) and adheren β-catenin markers confirming the presence of a functional tight junction before and after NLC ( 5 µM) challenge. […]

GFAP = assay: ELISA of GFAP in hippocampus; assay type: in vivo, ICR mice; details: Ave.

## CC[C@H](C)[C@H](NC(=O)[C@H](CC(N)=O)NC(=O)[C@H](Cc1c[nH]cn1)NC(=O)[C@@H](NC(=O)[C@@H]1CCCN1C(=O)[C@H](CCCNC(=N)N)NC(=O)[C@H](Cc1ccc(O)cc1)NC(=O)CNC(=O)[C@H](CS)NC(=O)c1ccc2c(c1)C(=O)OC21c2ccc(O)cc2Oc2cc(O)ccc21)C(C)C)C(=O)N[C@@H](CCCNC(=N)N)C(=O)NCC(=O)N[C@@H](Cc1c[nH]cn1)C(=O)N[C@@H](Cc1c[nH]c2ccccc12)C(=O)N[C@@H](C)C(=O)N1CCC[C@H]1C(=O)NCC(=O)O [FAM-CGY] (5FAM-CGYRPVHNIRGHWAPG-OH)
hCMEC/D3 cells [1]
  effect of serum proteins on association with endothelial cells: not affected by the presence of serum proteins
[2]
  histology of liver, kidneys, heart, lungs, spleen: no adverse morphological changes and inflammatory reactions
hCMEC/D3 cells [3]; CPZ (chloropromazine 30 μM), 8 h, replicate 1
  Mean flouresence (%), uptake vs Control (no inhibitor): 50.26%
hCMEC/D3 cells [3]; CPZ (chloropromazine 30 μM), 8 h, replicate 2
  Mean flouresence (%), uptake vs Control (no inhibitor): 42.26%
hCMEC/D3 cells [3]; CPZ (chloropromazine 30 μM), 8 h, replicate 3
  Mean flouresence (%), uptake vs Control (no inhibitor): 56.45%
hCMEC/D3 cells [3]; DOG+NaN3 (1 mM/1 mM), 8 h, replicate 2
  Mean flouresence (%), uptake vs Control (no inhibitor): 62.26%
hCMEC/D3 cells [3]; DOG+NaN3 (1 mM/1 mM), 8 h, replicate 3
  Mean flouresence (%), uptake vs Control (no inhibitor): 36.09%
hCMEC/D3 cells [3]; DOG+NaN3 (2-deoxy-D-glucose 1 mM/sodium azide 1 mM), 8 h, replicate 1
  Mean flouresence (%), uptake vs Control (no inhibitor): 44.27%
hCMEC/D3 cells [3]; IMC (indomethacin 200 μM), 1 h pre-treatment + 8 h, FACS, FAM-CGY NLC 5 µM or Texas Red-transferrin 5 µg per well, replicate 1
  Mean flouresence (%), uptake vs Control (no inhibitor): 66.27%
hCMEC/D3 cells [3]; IMC (indomethacin 200 μM), 8 h, replicate 2
  Mean flouresence (%), uptake vs Control (no inhibitor): 72.37%
hCMEC/D3 cells [3]; IMC (indomethacin 200 μM), 8 h, replicate 3
  Mean flouresence (%), uptake vs Control (no inhibitor): 72.43%
hCMEC/D3 cells [3]; NEM (N-ethylmaleimide 5 μM), 8 h, replicate 1
  Mean flouresence (%), uptake vs Control (no inhibitor): 56.24%
hCMEC/D3 cells [3]; NEM (N-ethylmaleimide 5 μM), 8 h, replicate 2
  Mean flouresence (%), uptake vs Control (no inhibitor): 70.26%
hCMEC/D3 cells [3]; NEM (N-ethylmaleimide 5 μM), 8 h, replicate 3
  Mean flouresence (%), uptake vs Control (no inhibitor): 66.59%
hCMEC/D3 cells [3]; WOR (worthmanin 10 μM), 8 h, replicate 1
  Mean flouresence (%), uptake vs Control (no inhibitor): 73.57%
hCMEC/D3 cells [3]; WOR (worthmanin 10 μM), 8 h, replicate 2
  Mean flouresence (%), uptake vs Control (no inhibitor): 75.56%
hCMEC/D3 cells [3]; WOR (worthmanin 10 μM), 8 h, replicate 3
  Mean flouresence (%), uptake vs Control (no inhibitor): 60.92%
Iba-1; 4 h after i.v.
  Iba-1 in hippocampus (Figure 6h): 0.93
Iba-1; 24 h after i.v. (LPS 24 h)
  Iba-1 in hippocampus (Figure 6h): 1.02
Iba-1; 72 h after i.v.
  Iba-1 in hippocampus (Figure 6h): 0.96
[4]
  association with brain parenchymal cells: neurons and microglial cells, but not with astrocytes
hCMEC/D3 cells [5]
  plasma membrane integrity (extracellular LDH): neither FAM-CGY NLCs nor FAM-CGY/siRNA nanoparticles perturbed plasma membrane integrity
IL-6; 4 h after i.v.
  IL-6 in hippocampus (Figure 6f): 6.03
IL-6; 72 h after i.v.
  IL-6 in hippocampus (Figure 6f): 6.23
TNF-α; 4 h after i.v.
  TNF-α in hippocampus (Figure 6e): 13.40
TNF-α; 24 h after i.v. (LPS 24 h)
  TNF-α in hippocampus (Figure 6e): 12.87
TNF-α; 72 h after i.v.
  TNF-α in hippocampus (Figure 6e): 12.94
hCMEC/D3 cell monolayer
  transport across the hCMEC/D3 monolayer: transport of a fraction across the monolayer
GFAP; 4 h after i.v.
  GFAP in hippocampus (Figure 6i): 219.00
GFAP; 24 h after i.v. (LPS 24 h)
  GFAP in hippocampus (Figure 6i): 209.59
GFAP; 72 h after i.v.
  GFAP in hippocampus (Figure 6i): 220.69
